Measurements taken from patent US7041275B2, “Irrigating fluid” (priority 2001, dated 2006).

How the values were obtained:
[1] = pig, in vivo
Description: To a bag with 3 L fluid 300 mL of nitrous oxide (=0,18 mg nitrous oxide/mL irrigagting fluid) were added. The nitrous oxide was measured with a 300 mL glass syringe and injected into the bag using the syringe connection. The temperature was abut 22° C. and the air pressure about 1015 mbar (not measured but estimated via meteorological service). Before the addition of nitrous oxide the gas in the bag was removed, about 1 mL remained. After the addition of nitrous oxide the bag was shaken until the nitrous oxide was dissolved. A gas bubble with a volume of abut 15 mL remained.
The weight of the pig was 19 kg. Ventilation 3L/min with 20 breaths per minute, 25% inhalation followed by 10% pause. At the first test 300 mL of irrigating fluid were injected intravenously during 20 min using a dosing pump.

[2] = Nitrous oxide concentration in exhaled air of pigs after injection of irrigating fluid containing nitrous oxide; assay type: in vivo, pig
Description: A Telair N2O monitor type 2001 L was used to measure the nitrous oxide concentration. The measuring range of the instrument was 0–1000 ppm.
As the analyser was sensitive also to carbon dioxide an absorber containing soda lime to remove the carbon dioxide was arranged before the analyser. During the absorption process water is formed which together with the moisture in the exhaled air can disturb the measurements. A layer of silica gel after the soda lime absorber was used to eliminate this problem.
The sample gas pump gave a sample flow of 300 mL/min.
The pump was continuously pumping gas. The measured concentration was a time weighted average for the exhaled and inhaled gas.
The weight of the pig was 19 kg.
The weight of the pig was 21 kg. Ventilation as for pig. 1. First 300 mL of irrigating fluid were injected intraperitonally during 20 minutes. The initial decrease in nitrous oxide concentration was caused by placing the needle in the wrong place. Some mL were injected before the injection was stopped and the test restarted. The decrease is the decay phase from the first injection.
In test two 600 mL were administered intravenously during 20 minutes.
Weight 23 kg. Ventilation […], the rest as for pig 1. First a number of tests with intravenous injection of pulses of fluid were performed. The volumes added were 2, 10 and 20 mL. Approximately 1 mL/s was added.
Then 150 mL of fluid were administered intravenously during 20 minutes. The discontinuity in the diagram was caused by testing another ventilator setting which affected the reading so much that the data point was not used. After 40 minutes 600 mL of irrigating fluid were added intravenously during 20 minutes.
The nitrous oxde concentration values are measured concentrations minus the starting point value. In some cases a test was started while the nitrous oxide concentration from the previous test was still decreasing. As the base line was not stable, the values at the end of the decay phase are uncertain. This can be seen in FIG. 4, where it looks like the 150 mL concentration values are stabilizing at a higher level than the 600 mL values.

[3] = intraperitoneal injection of irrigating fluid, exhaled air
[4] = intravenous injection of irrigating fluid, exhaled air

Row | SMILES | highest measured ethanol concentration [1] [%] | decrease of concentration in exhaled air compared with ethanol ([2]; data normalised to similar peak heights, pig 1, intravenous) | time before the nitrous oxide concentration started to increase [2, 3] [min] | time to 50% of the final concentration after the start of the increase [2, 3] | time after start of injection until nitrous oxide concentration started to increase [2, 4] | time to 50% of the final concentration after the concentration started to increase [2, 4] | measured nitrous oxide concentration used in mass balance ([2]; pig 3, 30 mL/min irrigating fluid intravenously, time weighted average of exhaled and inhaled gas) [ppm] | exhaled nitrous oxide (mass balance) ([2]; pig 3, added amount of nitrous oxide 3,0 mL/min) | increase of nitrous oxide concentration per mL of irrigating fluid ([2]; pulses of fluid added intravenously (2, 10, 20 mL), exhaled air, pig 3) | time of peak reading after start of injection ([2]; pulses of fluid added intravenously, exhaled air)
1 | CCO [ethanol] | 0.20 | – | – | – | – | – | – | – | – | –
2 | [N-]=[N+]=O [nitrous oxide] | – | decreased much faster than the ethanol | 2.5 | about 5 minutes | about 15 seconds | about one | 520 | 3,0 mL/min | 10–15 ppm per mL | about 30 seconds
